In patent publication US20160002247A1, “8-SUBSTITUTED IMIDAZOPYRIMIDINONE DERIVATIVE HAVING AUTOTAXIN INHIBITORY ACTIVITY” (THE UNIVERSITY OF TOKYO, priority 2013, published 2016):

Target: T1, Human autotaxin enzyme (Homo sapiens, UniProt Q13822)
T1 construct: purchased R&D System
Assay: Evaluation of autotaxin inhibitor, Method C (Test Example 3): 18:0 Lyso PC, choline assay, Resorufin fluorescence
Format: biochemical
Settings: Assay Method C (Test Example 3), human autotaxin, 18:0 Lyso PC substrate; read-out: Inhibitory Activity (autotaxin enzyme inhibitory activity, IC50 class)
Outline: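 Choline-coupled fluorescence readout (20 min, resorufin at 531/598 nm) followed a 2 h room-temperature reaction of human autotaxin with 18:0 Lyso PC substrate (added as 200 μM solution) in pH 7.5 Tris buffer containing MgCl2 and Triton X-100. Percent inhibition scaled to no-compound (0%) and no-enzyme (100%) wells and plotted versus concentration.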

Compound | IC50
CCCCCn1c(N2CCC3(CC2)COC3)cc(=O)n2cc(-c3ccc(Cl)cc3)nc12 [Compound 716] | 100 to 1000 nM
CCCCCn1c(OCC2(F)COC2)cc(=O)n2cc(-c3ccc(Cl)cc3)nc12 [Compound 718] | 10 to 100 nM
CCCCCn1c(OCC2(C)COC2)cc(=O)n2cc(-c3ccc(Cl)cc3)nc12 [Compound 719] | 100 to 1000 nM
CCCCCn1c(OCC2COC2)cc(=O)n2cc(-c3ccc(Cl)cc3)nc12 [Compound 720] | 100 to 1000 nM
CCCCCn1c(N2CCC[C@H]2C(=O)N[C@@H](Cc2c[nH]cn2)C(=O)O)cc(=O)n2cc(-c3ccc(Cl)cc3)nc12 [Compound 721] | 10 to 100 nM
CCCCCn1c(N2CCC[C@H]2C(=O)N[C@H](C(=O)O)C(C)(C)C)cc(=O)n2cc(-c3ccc(Cl)cc3)nc12 [Compound 722] | < 10 nM
CCCCCn1c(N2CCC[C@H]2C(=O)N[C@H](C(=O)O)C(C)C)cc(=O)n2cc(-c3ccc(Cl)cc3)nc12 [Compound 723] | < 10 nM
CCCCCn1c(N2CCC[C@H]2C(=O)N[C@@H](Cc2cccc3ccccc23)C(=O)O)cc(=O)n2cc(-c3ccc(Cl)cc3)nc12 [Compound 724] | < 10 nM
CCCCCn1c(N2CCC[C@H]2C(=O)N[C@H](Cc2ccccc2)C(=O)O)cc(=O)n2cc(-c3ccc(Cl)cc3)nc12 [Compound 725] | 10 to 100 nM
CCCCCn1c(N2CCC[C@H]2C(=O)N[C@@H](Cc2ccc3ccccc3c2)C(=O)O)cc(=O)n2cc(-c3ccc(Cl)cc3)nc12 [Compound 726] | < 10 nM
CCCCCn1c(N2CCC[C@H]2C(=O)N[C@H](C(=O)O)C(c2ccccc2)c2ccccc2)cc(=O)n2cc(-c3ccc(Cl)cc3)nc12 [Compound 727] | 100 to 1000 nM
CCCCCn1c(N2CCC[C@H]2C(=O)N[C@@H](CCCC)C(=O)O)cc(=O)n2cc(-c3ccc(Cl)cc3)nc12 [Compound 728] | < 10 nM
CCCCCn1c(N2CCC[C@H]2C(=O)N[C@@H](CC)C(=O)O)cc(=O)n2cc(-c3ccc(Cl)cc3)nc12 [Compound 729] | < 10 nM
CCCCCn1c(N2CCC[C@H]2C(=O)N[C@@H](CC(C)(C)C)C(=O)O)cc(=O)n2cc(-c3ccc(Cl)cc3)nc12 [Compound 730] | < 10 nM
CCCCCn1c(N2CCC[C@H]2C(=O)N[C@@H](CCC)C(=O)O)cc(=O)n2cc(-c3ccc(Cl)cc3)nc12 [Compound 731] | < 10 nM
CCCCCn1c(N2CCC[C@H]2C(=O)N[C@H](C(=O)O)c2ccccc2)cc(=O)n2cc(-c3ccc(Cl)cc3)nc12 [Compound 732] | < 10 nM
CCCCCn1c(N2CCC[C@H]2C(=O)N[C@@H](CC(C)C)C(=O)O)cc(=O)n2cc(-c3ccc(Cl)cc3)nc12 [Compound 733] | < 10 nM
CCCCCn1c(N2CCC[C@H]2C(=O)N[C@@H](CC2CCCCC2)C(=O)O)cc(=O)n2cc(-c3ccc(Cl)cc3)nc12 [Compound 734] | < 10 nM
CCCCCn1c(N2CCC[C@H]2C(=O)N[C@@H](CCc2ccccc2)C(=O)O)cc(=O)n2cc(-c3ccc(Cl)cc3)nc12 [Compound 735] | < 10 nM
CCCCCn1c(N2CCC[C@H]2C(=O)N(CC(=O)O)Cc2ccccc2)cc(=O)n2cc(-c3ccc(Cl)cc3)nc12 [Compound 736] | < 10 nM
CCCCCn1c(N2CCC[C@H]2C(=O)NC(C)C(=O)O)cc(=O)n2cc(-c3ccc(Cl)cc3)nc12 (stereo partly shown) [Compound 737] | < 10 nM

Compound | IC50
CCCCCn1c(N2CCC[C@H]2C(=O)N[C@H](CCCC)C(=O)O)cc(=O)n2cc(-c3ccc(Cl)cc3)nc12 [Compound 738] | < 10 nM
CCCCCn1c(N2CCC[C@H]2C(=O)N[C@H](CC)C(=O)O)cc(=O)n2cc(-c3ccc(Cl)cc3)nc12 [Compound 739] | < 10 nM
CCCCCn1c(N2CCC[C@H]2C(=O)N[C@@H](Cc2ccccc2)C(=O)O)cc(=O)n2cc(-c3ccc(Cl)cc3)nc12 [Compound 740] | < 10 nM
O=C(O)[C@H](Cc1ccccc1)NC(=O)[C@@H]1CCCN1c1cc(=O)n2cc(-c3ccc(Cl)cc3)nc2n1Cc1ccccc1 [Compound 743] | < 10 nM
O=C(O)CNC(=O)[C@@H]1CCCN1c1cc(=O)n2cc(-c3ccc(Cl)cc3)nc2n1Cc1ccccc1 [Compound 744] | 10 to 100 nM
O=C(O)[C@H](CCc1ccccc1)NC(=O)[C@@H]1CCCN1c1cc(=O)n2cc(-c3ccc(Cl)cc3)nc2n1Cc1ccccc1 [Compound 745] | < 10 nM
CC(C)(C)[C@H](NC(=O)[C@@H]1CCCN1c1cc(=O)n2cc(-c3ccc(Cl)cc3)nc2n1Cc1ccccc1)C(=O)O [Compound 746] | < 10 nM
CC(C)(NC(=O)[C@@H]1CCCN1c1cc(=O)n2cc(-c3ccc(Cl)cc3)nc2n1Cc1ccccc1)C(=O)O [Compound 747] | 10 to 100 nM
C[C@H](NC(=O)[C@@H]1CCCN1c1cc(=O)n2cc(-c3ccc(Cl)cc3)nc2n1Cc1ccccc1)C(=O)O [Compound 748] | < 10 nM
O=C(O)[C@H](Cc1ccccc1)NC(=O)[C@@H]1C[C@@H](O)CN1c1cc(=O)n2cc(-c3ccc(Cl)cc3)nc2n1Cc1ccccc1 [Compound 749] | < 10 nM
O=C(O)CNC(=O)[C@@H]1C[C@@H](O)CN1c1cc(=O)n2cc(-c3ccc(Cl)cc3)nc2n1Cc1ccccc1 [Compound 750] | 10 to 100 nM
O=C(O)[C@H](CCc1ccccc1)NC(=O)[C@@H]1C[C@@H](O)CN1c1cc(=O)n2cc(-c3ccc(Cl)cc3)nc2n1Cc1ccccc1 [Compound 751] | < 10 nM
CC(C)(C)[C@H](NC(=O)[C@@H]1C[C@@H](O)CN1c1cc(=O)n2cc(-c3ccc(Cl)cc3)nc2n1Cc1ccccc1)C(=O)O [Compound 752] | < 10 nM
CC(C)(NC(=O)[C@@H]1C[C@@H](O)CN1c1cc(=O)n2cc(-c3ccc(Cl)cc3)nc2n1Cc1ccccc1)C(=O)O [Compound 753] | < 10 nM
C[C@H](NC(=O)[C@@H]1C[C@@H](O)CN1c1cc(=O)n2cc(-c3ccc(Cl)cc3)nc2n1Cc1ccccc1)C(=O)O [Compound 754] | < 10 nM
CCn1c(N2CCC[C@H]2C(=O)N[C@@H](Cc2ccccc2)C(=O)O)cc(=O)n2cc(-c3ccc(Cl)cc3)nc12 [Compound 755] | 100 to 1000 nM
CCn1c(N2CCC[C@H]2C(=O)NCC(=O)O)cc(=O)n2cc(-c3ccc(Cl)cc3)nc12 [Compound 756] | 100 to 1000 nM
CCn1c(N2CCC[C@H]2C(=O)N[C@@H](CCc2ccccc2)C(=O)O)cc(=O)n2cc(-c3ccc(Cl)cc3)nc12 [Compound 757] | 10 to 100 nM
CCn1c(N2CCC[C@H]2C(=O)N[C@H](C(=O)O)C(C)(C)C)cc(=O)n2cc(-c3ccc(Cl)cc3)nc12 [Compound 758] | 10 to 100 nM
CCn1c(N2CCC[C@H]2C(=O)NC(C)(C)C(=O)O)cc(=O)n2cc(-c3ccc(Cl)cc3)nc12 [Compound 759] | 10 to 100 nM
CCn1c(N2CCC[C@H]2C(=O)N[C@@H](C)C(=O)O)cc(=O)n2cc(-c3ccc(Cl)cc3)nc12 [Compound 760] | 10 to 100 nM

Compound | IC50
CCn1c(N2C[C@H](O)C[C@H]2C(=O)N[C@@H](Cc2ccccc2)C(=O)O)cc(=O)n2cc(-c3ccc(Cl)cc3)nc12 [Compound 761] | 100 to 1000 nM
CCn1c(N2C[C@H](O)C[C@H]2C(=O)NCC(=O)O)cc(=O)n2cc(-c3ccc(Cl)cc3)nc12 [Compound 762] | > 1000 nM
CCn1c(N2C[C@H](O)C[C@H]2C(=O)N[C@@H](CCc2ccccc2)C(=O)O)cc(=O)n2cc(-c3ccc(Cl)cc3)nc12 [Compound 763] | 10 to 100 nM
CCn1c(N2C[C@H](O)C[C@H]2C(=O)N[C@H](C(=O)O)C(C)(C)C)cc(=O)n2cc(-c3ccc(Cl)cc3)nc12 [Compound 764] | 10 to 100 nM
CCn1c(N2C[C@H](O)C[C@H]2C(=O)NC(C)(C)C(=O)O)cc(=O)n2cc(-c3ccc(Cl)cc3)nc12 [Compound 765] | 100 to 1000 nM
CCn1c(N2C[C@H](O)C[C@H]2C(=O)N[C@@H](C)C(=O)O)cc(=O)n2cc(-c3ccc(Cl)cc3)nc12 [Compound 766] | 10 to 100 nM
Cn1c(N2CCC[C@H]2C(=O)N[C@@H](Cc2ccccc2)C(=O)O)cc(=O)n2cc(-c3ccc(Cl)cc3)nc12 [Compound 767] | 100 to 1000 nM
Cn1c(N2CCC[C@H]2C(=O)NCC(=O)O)cc(=O)n2cc(-c3ccc(Cl)cc3)nc12 [Compound 768] | > 1000 nM
Cn1c(N2CCC[C@H]2C(=O)N[C@@H](CCc2ccccc2)C(=O)O)cc(=O)n2cc(-c3ccc(Cl)cc3)nc12 [Compound 769] | 10 to 100 nM
Cn1c(N2CCC[C@H]2C(=O)N[C@H](C(=O)O)C(C)(C)C)cc(=O)n2cc(-c3ccc(Cl)cc3)nc12 [Compound 770] | 100 to 1000 nM
C[C@H](NC(=O)[C@@H]1CCCN1c1cc(=O)n2cc(-c3ccc(Cl)cc3)nc2n1C)C(=O)O [Compound 771] | 100 to 1000 nM
Cn1c(N2C[C@H](O)C[C@H]2C(=O)N[C@@H](Cc2ccccc2)C(=O)O)cc(=O)n2cc(-c3ccc(Cl)cc3)nc12 [Compound 772] | 100 to 1000 nM
Cn1c(N2C[C@H](O)C[C@H]2C(=O)NCC(=O)O)cc(=O)n2cc(-c3ccc(Cl)cc3)nc12 [Compound 773] | > 1000 nM
Cn1c(N2C[C@H](O)C[C@H]2C(=O)N[C@H](C(=O)O)C(C)(C)C)cc(=O)n2cc(-c3ccc(Cl)cc3)nc12 [Compound 774] | 10 to 100 nM
CCCCCn1c(N2C[C@@H](O)C[C@H]2C(=O)N[C@@H](Cc2ccccc2)C(=O)O)cc(=O)n2cc(-c3ccc(Cl)cc3)nc12 [Compound 775] | < 10 nM
CCCCCn1c(N2C[C@@H](O)C[C@H]2C(=O)NCC(=O)O)cc(=O)n2cc(-c3ccc(Cl)cc3)nc12 [Compound 776] | < 10 nM
CCCCCn1c(N2C[C@@H](O)C[C@H]2C(=O)N[C@@H](CCc2ccccc2)C(=O)O)cc(=O)n2cc(-c3ccc(Cl)cc3)nc12 [Compound 777] | < 10 nM
CCCCCn1c(N2C[C@@H](O)C[C@H]2C(=O)N[C@H](C(=O)O)C(C)(C)C)cc(=O)n2cc(-c3ccc(Cl)cc3)nc12 [Compound 778] | < 10 nM
CCCCCn1c(N2C[C@@H](O)C[C@H]2C(=O)N[C@@H](C)C(=O)O)cc(=O)n2cc(-c3ccc(Cl)cc3)nc12 [Compound 779] | < 10 nM
